Results as given in the supplement of paper PMC10331698.
± gives the standard deviation of the averaged measurements.

Tests used:
Assay in all cases: level (log10 ratio to DMSO vehicle control); higher = higher biomarker level / cell amount than vehicle control
[1] = compound: C=C(C)C(=O)OCCC(F)(F)C(F)(F)C(F)(F)C(F)(F)C(F)(F)C(F)(F)F [6:2 Fluorotelomer methacrylate]; conditions: in DMSO
Experimental: (§1)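 BioMAP Diversity Plus panel of 12 human primary cell co-culture systems (3C, 4H, LPS, SAg, BT, BF4T, BE3C, CASM3C, HDF3CGF, KF3CT, MyoF, Mphg). Compounds were added 1 h before stimulation and left for 24 h (MyoF 48 h; BT 72 h for soluble read-outs or 6 d for IgG). Biomarkers were read by ELISA, cytotoxicity by SRB, PBMC viability and proliferation by Alamar Blue. Each well value was divided by the mean of 8 DMSO control wells on the same plate and log10 transformed; duplicate blinded samples were tested at 4 concentrations.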

[2] = compound: C=CC(=O)OCC(F)(F)C(F)(F)C(F)(F)COC(=O)C=C [1H,1H,5H,5H-Perfluoro-1,5-pentanediol diacrylate]; conditions: 6700 nM; in DMSO
Experimental: as §1

[3] = compound: COC(=O)C(F)(F)C(F)(F)OC(F)(C(F)(F)F)C(F)(F)OC(F)=C(F)F [Methyl perfluoro(3-(1-ethenyloxypropan-2-yloxy)propanoate)]; conditions: in DMSO
Experimental: as §1

[4] = compound: FC(F)(F)C(F)(F)C(F)(F)C(F)(F)C(F)(F)C(F)(F)C(F)(F)I [1-Iodopentadecafluoroheptane]; conditions: in DMSO
Experimental: as §1

[5] = compound: FC(F)(F)C(F)(F)C(F)(F)C(F)(F)C(F)(F)C(F)(F)CC1CO1 [3-(Perfluorohexyl)-1,2-epoxypropane]; conditions: in DMSO
Experimental: as §1

[6] = compound: FC(F)(F)C(F)(F)C(F)(F)CC1CO1 [1H,1H-Heptafluorobutyl epoxide]; conditions: in DMSO
Experimental: as §1

Heptafluorobutyl iodide = compound: FC(F)(F)C(F)(F)C(F)(F)CI [Heptafluorobutyl iodide]; conditions: in DMSO
Experimental: as §1

[7] = compound: FC(F)(F)C(F)(F)CNCC(F)(F)C(F)(F)F [Bis(1H,1H-perfluoropropyl)amine]; conditions: in DMSO
Experimental: as §1

Octafluoroadipamide = compound: NC(=O)C(F)(F)C(F)(F)C(F)(F)C(F)(F)C(N)=O [Octafluoroadipamide]; conditions: in DMSO
Experimental: as §1

Nonafluoropentanamide = compound: NC(=O)C(F)(F)C(F)(F)C(F)(F)C(F)(F)F [Nonafluoropentanamide]; conditions: in DMSO
Experimental: as §1

[8] = compound: NC(=O)C(F)(F)C(F)(F)C(F)(F)C(F)F; conditions: in DMSO
Experimental: as §1

[9] = compound: NS(=O)(=O)C(F)(F)C(F)(F)C(F)(F)C(F)(F)C(F)(F)C(F)(F)F [Perfluorohexanesulfonamide]; conditions: in DMSO
Experimental: as §1

[10] = compound: O=C(O)C(F)(F)C(F)(F)C(F)(F)C(F)(F)C(F)(F)C(F)(F)C(F)(F)C(F)(F)C(F)(F)C(F)F [11-H-Perfluoroundecanoic acid]; conditions: in DMSO
Experimental: as §1

[11] = compound: O=C(O)C=CC(F)(C(F)(F)F)C(F)(F)F [3-(Perfluoroisopropyl)-2-propenoic acid]; conditions: in DMSO
Experimental: as §1

[12] = compound: O=S(=O)(Cl)C(F)(F)C(F)(F)C(F)(F)C(F)(F)C(F)(F)C(F)(F)C(F)(F)C(F)(F)F [Perfluoro-1-octanesulfonyl chloride]; conditions: in DMSO
Experimental: as §1

[13] = compound: O=S(=O)(F)C(F)(F)C(F)(F)C(F)(F)C(F)(F)C(F)(F)C(F)(F)C(F)(F)C(F)(F)F [Perfluorooctanesulfonyl fluoride]; conditions: in DMSO
Experimental: as §1

[14] = compound: O=S(=O)(O)C(F)(F)C(F)(F)C(F)(F)C(F)(F)C(F)(F)C(F)(F)C(F)(F)C(F)(F)C(F)(F)C(F)(F)F [Sodium perfluorodecanesulfonate]; conditions: in DMSO
Experimental: as §1

[15] = compound: O=S(=O)(O)CCC(F)(F)C(F)(F)C(F)(F)C(F)(F)C(F)(F)C(F)(F)F [6:2 Fluorotelomer sulfonic acid]; conditions: in DMSO
Experimental: as §1

Hexafluoroamylene glycol = compound: OCC(F)(F)C(F)(F)C(F)(F)CO [Hexafluoroamylene glycol]; conditions: in DMSO
Experimental: as §1

Q: What does the source list for MyoF:Collagen IV?
A: level (log10) ([1]; 6700 nM): -0.075 ± 0.11; level (log10) ([1]; 20000 nM): -0.0395 ± 0.076; level (log10) ([1]; 60000 nM): -0.02 ± 0.1; level (log10) [2]: 0.03 ± 0.047; level (log10) ([3]; 6700 nM): -0.0215 ± 0.04; level (log10) ([3]; 20000 nM): -0.0235 ± 0.028; level (log10) ([4]; 6700 nM): 0.0705 ± 0.049; level (log10) ([4]; 20000 nM): 0.279 ± 0.09; level (log10) ([5]; 6700 nM): 0.002 ± 0.025; level (log10) ([5]; 20000 nM): 0.0185 ± 0.0021; level (log10) ([5]; 60000 nM): 0.0425 ± 0.053; level (log10) ([6]; 6700 nM): -0.0125 ± 0.015; level (log10) ([6]; 20000 nM): 0 ± 0.0099; level (log10) ([6]; 60000 nM): 0.001 ± 0.035; level (log10) (Heptafluorobutyl iodide; 6700 nM): -0.021 ± 0.0071; level (log10) (Heptafluorobutyl iodide; 20000 nM): -0.0325 ± 0.016; level (log10) (Heptafluorobutyl iodide; 60000 nM): -0.0185 ± 0.039; level (log10) ([7]; 6700 nM): -0.014 ± 0.03; level (log10) ([7]; 20000 nM): -0.0275 ± 0.015; level (log10) ([7]; 60000 nM): -0.008 ± 0.03; level (log10) (Octafluoroadipamide; 6700 nM): -0.0165 ± 0.015; level (log10) (Octafluoroadipamide; 20000 nM): -0.0065 ± 0.0064; level (log10) (Octafluoroadipamide; 60000 nM): 0.003 ± 0.038; level (log10) (Nonafluoropentanamide; 6700 nM): -0.051 ± 0.12; level (log10) (Nonafluoropentanamide; 20000 nM): -0.0655 ± 0.054; level (log10) (Nonafluoropentanamide; 60000 nM): -0.0655 ± 0.064; level (log10) ([8]; 6700 nM): -0.0075 ± 0.0035; level (log10) ([8]; 20000 nM): -0.007 ± 0.028; level (log10) ([8]; 60000 nM): 0.014 ± 0.038; level (log10) ([9]; 6700 nM): 0.0555 ± 0.023; level (log10) ([9]; 20000 nM): 0.202 ± 0.025; level (log10) ([9]; 60000 nM): 0.408 ± 0.016; level (log10) ([10]; 6700 nM): 0.141 ± 0.0028; level (log10) ([10]; 20000 nM): 0.293 ± 0.034; level (log10) ([11]; 6700 nM): -0.01 ± 0.023; level (log10) ([11]; 20000 nM): 0.0025 ± 0.0078; level (log10) ([11]; 60000 nM): 0.0205 ± 0.022; level (log10) ([12]; 6700 nM): 0.014 ± 0.011; level (log10) ([12]; 20000 nM): 0.052 ± 0.023; level (log10) ([12]; 60000 nM): 0.241 ± 0.037; level (log10) ([13]; 6700 nM): 0.0015 ± 0.015; level (log10) ([13]; 20000 nM): 0.023 ± 0.025; level (log10) ([13]; 60000 nM): 0.0235 ± 0.018; level (log10) ([14]; 1500 nM): 0.014 ± 0.02; level (log10) ([14]; 4400 nM): 0.035 ± 0.0085; level (log10) ([14]; 13000 nM): 0.0215 ± 0.0035; level (log10) ([14]; 40000 nM): 0.0065 ± 0.033; level (log10) ([15]; 6700 nM): -0.0185 ± 0.033; level (log10) ([15]; 20000 nM): -0.006 ± 0.023; level (log10) ([15]; 60000 nM): -0.002 ± 0.014; level (log10) (Hexafluoroamylene glycol; 6700 nM): -0.0165 ± 0.042; level (log10) (Hexafluoroamylene glycol; 20000 nM): -0.0015 ± 0.026; level (log10) (Hexafluoroamylene glycol; 60000 nM): -0.0035 ± 0.00071

Q: Which results are given for MyoF:Decorin?
A: level (log10) ([1]; 6700 nM): -0.0045 ± 0.033; level (log10) ([1]; 20000 nM): 0.0325 ± 0.028; level (log10) ([1]; 60000 nM): 0.015 ± 0.0042; level (log10) [2]: -0.0325 ± 0.0064; level (log10) ([3]; 6700 nM): 0.0595 ± 0.022; level (log10) ([3]; 20000 nM): 0.07 ± 0.017; level (log10) ([4]; 6700 nM): 0.0365 ± 0.049; level (log10) ([4]; 20000 nM): 0.0215 ± 0.029; level (log10) ([5]; 6700 nM): 0.001 ± 0.03; level (log10) ([5]; 20000 nM): 0.003; level (log10) ([5]; 60000 nM): 0.0265 ± 0.035; level (log10) ([6]; 6700 nM): -0.01 ± 0.014; level (log10) ([6]; 20000 nM): -0.009 ± 0.028; level (log10) ([6]; 60000 nM): 0.009 ± 0.035; level (log10) (Heptafluorobutyl iodide; 6700 nM): 0.0045 ± 0.016; level (log10) (Heptafluorobutyl iodide; 20000 nM): -0.016 ± 0.0071; level (log10) (Heptafluorobutyl iodide; 60000 nM): 0.005 ± 0.0042; level (log10) ([7]; 6700 nM): -0.005 ± 0.0071; level (log10) ([7]; 20000 nM): -0.0065 ± 0.021; level (log10) ([7]; 60000 nM): 0.015 ± 0.034; level (log10) (Octafluoroadipamide; 6700 nM): 0.0105 ± 0.035; level (log10) (Octafluoroadipamide; 20000 nM): -0.0025 ± 0.0092; level (log10) (Octafluoroadipamide; 60000 nM): 0.017 ± 0.028; level (log10) (Nonafluoropentanamide; 6700 nM): -0.0155 ± 0.0078; level (log10) (Nonafluoropentanamide; 20000 nM): 0.013 ± 0.0028; level (log10) (Nonafluoropentanamide; 60000 nM): -0.0045 ± 0.00071; level (log10) ([8]; 6700 nM): 0.012 ± 0.0085; level (log10) ([8]; 20000 nM): -0.0035 ± 0.03; level (log10) ([8]; 60000 nM): -0.009 ± 0.0085; level (log10) ([9]; 6700 nM): 0.0325 ± 0.076; level (log10) ([9]; 20000 nM): -0.0095 ± 0.1; level (log10) ([9]; 60000 nM): -0.03 ± 0.054; level (log10) ([10]; 6700 nM): 0.0415 ± 0.077; level (log10) ([10]; 20000 nM): 0.052 ± 0.031; level (log10) ([11]; 6700 nM): -0.0045 ± 0.021; level (log10) ([11]; 20000 nM): 0.004 ± 0.0014; level (log10) ([11]; 60000 nM): 0.0225 ± 0.029; level (log10) ([12]; 6700 nM): -0.007 ± 0.0071; level (log10) ([12]; 20000 nM): 0.014 ± 0.033; level (log10) ([12]; 60000 nM): 0.09 ± 0.085; level (log10) ([13]; 6700 nM): 0.001 ± 0.011; level (log10) ([13]; 20000 nM): -0.013 ± 0.0042; level (log10) ([13]; 60000 nM): 0.016 ± 0.0057; level (log10) ([14]; 1500 nM): -0.0285 ± 0.016; level (log10) ([14]; 4400 nM): 0.013 ± 0.0099; level (log10) ([14]; 13000 nM): -0.0025 ± 0.016; level (log10) ([14]; 40000 nM): 0.034; level (log10) ([15]; 6700 nM): 0.0105 ± 0.0035; level (log10) ([15]; 20000 nM): 0.0015 ± 0.00071; level (log10) ([15]; 60000 nM): 0.0435 ± 0.0021; level (log10) (Hexafluoroamylene glycol; 6700 nM): 0.001 ± 0.0042; level (log10) (Hexafluoroamylene glycol; 20000 nM): -0.01 ± 0.0042; level (log10) (Hexafluoroamylene glycol; 60000 nM): -0.015 ± 0.013
